The results in this text go back to patent publication US11453660B2, “Androgen receptor and glucocorticoid receptor modulators” (ONCOSTELLAE, S.L., priority 2017, dated 2022).

The Kb is the equilibrium dissociation constant of an antagonist, usually derived from a functional assay.

Structures are written as SMILES.

The target of this assay is T1, AR-Receptor (Homo sapiens, UniProt P10275).
T1 sequence (P10275 1-920 Q868H): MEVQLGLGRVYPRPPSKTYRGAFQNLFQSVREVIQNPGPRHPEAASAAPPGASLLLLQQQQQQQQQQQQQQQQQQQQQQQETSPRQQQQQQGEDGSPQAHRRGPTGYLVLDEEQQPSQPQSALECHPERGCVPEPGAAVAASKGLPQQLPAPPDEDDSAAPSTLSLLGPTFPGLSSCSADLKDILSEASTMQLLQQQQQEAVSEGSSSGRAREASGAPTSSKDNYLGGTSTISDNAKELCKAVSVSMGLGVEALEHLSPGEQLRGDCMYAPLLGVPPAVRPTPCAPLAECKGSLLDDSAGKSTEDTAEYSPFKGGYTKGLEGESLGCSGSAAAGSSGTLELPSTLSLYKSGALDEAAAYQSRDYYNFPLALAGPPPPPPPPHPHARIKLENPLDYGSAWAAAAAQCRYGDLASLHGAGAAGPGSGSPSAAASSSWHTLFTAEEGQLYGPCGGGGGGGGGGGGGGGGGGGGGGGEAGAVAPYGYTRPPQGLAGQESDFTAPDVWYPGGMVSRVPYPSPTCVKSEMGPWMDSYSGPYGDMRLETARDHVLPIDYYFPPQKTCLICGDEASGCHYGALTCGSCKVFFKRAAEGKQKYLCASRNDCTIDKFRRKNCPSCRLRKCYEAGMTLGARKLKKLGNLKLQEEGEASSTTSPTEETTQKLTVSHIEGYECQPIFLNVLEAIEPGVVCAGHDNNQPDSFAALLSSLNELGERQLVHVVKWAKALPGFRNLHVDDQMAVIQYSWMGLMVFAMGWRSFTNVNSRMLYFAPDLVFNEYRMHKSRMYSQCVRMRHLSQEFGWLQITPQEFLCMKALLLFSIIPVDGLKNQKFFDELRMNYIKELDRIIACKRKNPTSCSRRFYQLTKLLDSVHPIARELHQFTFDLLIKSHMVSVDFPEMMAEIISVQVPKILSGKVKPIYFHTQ
Kind of assay: Functional Assay AR-Receptor (MDA-MB-453 cells, luciferase). Type of assay: cell-based. To be noted: antagonist effect in the presence of DHT 1 nM, 24 h, luciferase luminescence, read-out: AR antag KB. The procedure, abridged: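 MDA-MB-453 cells, 8000/well, were switched to medium with 0.1% FBS and exposed to compounds for 24 h at 37 °C. Antagonist mode used 1 nM DHT. After lysis and a freeze-thaw cycle, luciferase luminescence was read.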
In the case of `CC(=O)C1=C(C)NC(C)=C(C(=O)OCc2ccccc2)C1c1csc2ccc(Cl)cc12` (stereo not drawn) [Example C42, Benzyl 5-acetyl-4-(5-chlorobenzo[b]thiophen-3-yl)-2,6-dimethyl-1,4-dihydropyridine-3-carboxylate], the antagonist dissociation constant (Kb) was under 100 nM. To `CC(=O)C1=C(C)NC(C)=C(C(=O)OCc2ccccc2Br)C1c1csc2ncccc12` (stereo not drawn) [Example C67, 2-bromobenzyl 5-acetyl-2,6-dimethyl-4-(thieno[2,3-b]pyridin-3-yl)-1,4-dihydropyridine-3-carboxylate] belongs under 100 nM; to `CC(=O)C1=C(C)NC(C)=C(C(=O)OCc2ccc(-c3cccnc3)cc2)C1c1csc2ncccc12` (stereo not drawn) [Example L2, 4-(pyridin-3-yl)benzyl 5-acetyl-2,6-dimethyl-4-(thieno[2,3-b]pyridin-3-yl)-1,4-dihydropyridine-3-carboxylate], 100 to 1000 nM; to `CC(=O)C1=C(C)NC(C2CC2)=C(C(=O)OCc2ccncc2)C1c1csc2c(Br)cccc12` (stereo not drawn) [Example J41, Pyridin-4-ylmethyl 5-acetyl-4-(7-bromobenzo[b]thiophen-3-yl)-2-cyclopropyl-6-methyl-1,4-dihydropyridine-3-carboxylate], 100 to 1000 nM. To `CC(=O)C1=C(C)NC(C)=C(C(=O)OC2CCCCC2)C1c1csc2ncccc12` (stereo not drawn) [Example C36, Cyclohexyl 5-acetyl-2,6-dimethyl-4-(thieno[2,3-b]pyridin-3-yl)-1,4-dihydropyridine-3-carboxylate] belongs at least 1000 nM; to `COC(=O)C1=C(C2CC2)NC(C)=C(C(C)=O)C1c1csc2c(Br)cccc12` (stereo not drawn) [Example J26, Methyl 5-acetyl-4-(7-bromobenzo[b]thiophen-3-yl)-2-cyclopropyl-6-methyl-1,4-dihydropyridine-3-carboxylate], 100 to 1000 nM; to `CC1=C(C(=O)OCC2CC2)C(c2csc3c(C#N)cccc23)C(C(=O)OCC2CC2)=C(N)N1` (stereo not drawn) [Example D46, Bis(cyclopropylmethyl) 2-amino-4-(7-cyanobenzo[b]thiophen-3-yl)-6-methyl-1,4-dihydropyridine-3,5-dicarboxylate], at least 1000 nM.

In the case of `CC(=O)C1=C(C)NC(C)=C(C(=O)OCc2cccnc2)C1c1csc2c(Br)cccc12` (stereo not drawn) [Example C58, Pyridin-3-ylmethyl 5-acetyl-4-(7-bromobenzo[b]thiophen-3-yl)-2,6-dimethyl-1,4-dihydropyridine-3-carboxylate], the antagonist equilibrium constant (Kb) was 100 to 1000 nM. `COC(=O)C1=C(C)NC(N)=C(C(=O)OC(C)C)C1c1csc2c(C#N)cccc12` (stereo not drawn) [Example D41, 3-Isopropyl 5-methyl 2-amino-4-(7-cyanobenzo[b]thiophen-3-yl)-6-methyl-1,4-dihydropyridine-3,5-dicarboxylate]: the antagonist equilibrium constant (Kb) was under 100 nM. Consider `CC(=O)C1=C(C)NC(C)=C(C(=O)OC(C)(C)c2ccccc2)C1c1csc2ncccc12` (stereo not drawn) [Example C71, 2-phenylpropan-2-yl 5-acetyl-2,6-dimethyl-4-(thieno[2,3-b]pyridin-3-yl)-1,4-dihydropyridine-3-carboxylate], for which the Kb was at least 1000 nM.

For the molecule `CC(=O)C1=C(C)NC(C)=C(C(=O)OCc2cccnc2)C1c1csc2ccccc12` (stereo not drawn) [Example C48, Pyridin-3-ylmethyl 5-acetyl-4-(benzo[b]thiophen-3-yl)-2,6-dimethyl-1,4-dihydropyridine-3-carboxylate], the Kb lay within 100 to 1000 nM.

As for `CC(=O)C1=C(C)NC(C)=C(C(=O)OCC2CC2)C1c1csc2ncccc12` (stereo not drawn) [Example C24, Cyclopropylmethyl 5-acetyl-2,6-dimethyl-4-(thieno[2,3-b]pyridin-3-yl)-1,4-dihydropyridine-3-carboxylate], the Kb is at least 1000 nM.

Consider `COC(=O)C1=C(C=O)NC(C2CC2)=C(C(=O)OC)C1c1csc2c(C#N)cccc12` (stereo not drawn) [Example C117, Dimethyl 4-(7-cyanobenzo[b]thiophen-3-yl)-2-cyclopropyl-6-formyl-1,4-dihydropyridine-3,5-dicarboxylate], for which the Kb was in the range of 100 to 1000 nM. For the molecule `CC(=O)C1=C(C)NC(C)=C(C(=O)OCc2ccc(C#N)cc2)C1c1csc2ncccc12` (stereo not drawn) [Example C73, 4-cyanobenzyl 5-acetyl-2,6-dimethyl-4-(thieno[2,3-b]pyridin-3-yl)-1,4-dihydropyridine-3-carboxylate], the antagonist dissociation constant (Kb) was at least 1000 nM. In the case of `CC(=O)C1=C(C)NC(N)=C(C(=O)OCC2CCCCC2)C1c1csc2c(C#N)cccc12` (stereo not drawn) [Example D30, Cyclohexylmethyl 5-acetyl-2-amino-4-(7-cyanobenzo[b]thiophen-3-yl)-6-methyl-1,4-dihydropyridine-3-carboxylate] it was 100 to 1000 nM; in that of `CC(=O)C1=C(C)NC(C2CC2)=C(C(=O)OCc2ccc(F)cc2)C1c1csc2ncccc12` (stereo not drawn) [Example J42, 4-fluorobenzyl 5-acetyl-2-cyclopropyl-6-methyl-4-(thieno[2,3-b]pyridin-3-yl)-1,4-dihydropyridine-3-carboxylate], under 100 nM; in that of `CC1=C(C#N)C(c2csc3c(C#N)cccc23)C(C(=O)OCC2CC2)=C(N)N1` (stereo not drawn) [Example D24, cyclopropylmethyl 2-amino-5-cyano-4-(7-cyanobenzo[b]thiophen-3-yl)-6-methyl-1,4-dihydropyridine-3-carboxylate], 100 to 1000 nM. As to `CC(=O)C1=C(C)NC(C)=C(C(=O)OCc2cccc(-c3cccnc3)c2)C1c1csc2ncccc12` (stereo not drawn) [Example L4, 3-(pyridin-3-yl)benzyl 5-acetyl-2,6-dimethyl-4-(thieno[2,3-b]pyridin-3-yl)-1,4-dihydropyridine-3-carboxylate], the Kb lay within 100 to 1000 nM.

For `CC1=C(C(=O)OC2CC2)C(c2csc3c(C#N)cccc23)C(C(=O)OCC2CC2)=C(N)N1` (stereo not drawn) [Example D37, 5-Cyclopropyl 3-(cyclopropylmethyl) 2-amino-4-(7-cyanobenzo[b]thiophen-3-yl)-6-methyl-1,4-dihydropyridine-3,5-dicarboxylate], the antagonist equilibrium constant (Kb) lay in the range of 100 to 1000 nM. In the case of `CC(=O)C1=C(C)NC(C)=C(C(=O)OCc2ccc(-c3ccncc3)cc2)C1c1csc2ncccc12` (stereo not drawn) [Example L1, 4-(pyridin-4-yl)benzyl 5-acetyl-2,6-dimethyl-4-(thieno[2,3-b]pyridin-3-yl)-1,4 dihydropyridine-3-carboxylate] it was 100 to 1000 nM.

Regarding `CC(=O)C1=C(C)NC(C)=C(C(=O)OCc2cccc(-c3ccncc3)c2)C1c1csc2ncccc12` (stereo not drawn) [Example L3, 3-(pyridin-4-yl)benzyl 5-acetyl-2,6-dimethyl-4-(thieno[2,3-b]pyridin-3-yl)-1,4-dihydropyridine-3-carboxylate], the antagonist equilibrium constant (Kb) was 100 to 1000 nM. In the case of `CC(=O)C1=C(C)NC(C)=C(C(=O)OCc2ccncc2)C1c1csc2ccc(F)cc12` (stereo not drawn) [Example C46, Pyridin-4-ylmethyl 5-acetyl-4-(5-fluorobenzo[b]thiophen-3-yl)-2,6-dimethyl-1,4-dihydropyridine-3-carboxylate] it was 100 to 1000 nM; in that of `COC(=O)C1=C(C)NC(N)=C(C(=O)OC2CCCC2)C1c1csc2c(C#N)cccc12` (stereo not drawn) [Example D27, 3-Cyclopentyl 5-methyl 2-amino-4-(7-cyanobenzo[b]thiophen-3-yl)-6-methyl-1,4-dihydropyridine-3,5-dicarboxylate], 100 to 1000 nM; in that of `CC(=O)C1=C(C)NC(C)=C(C(=O)OCC2CCOCC2)C1c1csc2ccc(F)cc12` (stereo not drawn) [Example C44, (Tetrahydro-2H-pyran-4-yl)methyl 5-acetyl-4-(5-fluorobenzo[b]thiophen-3-yl)-2,6-dimethyl-1,4-dihydropyridine-3-carboxylate], 100 to 1000 nM. Take `COC(=O)C1=C(C)NC(N)=C(C(=O)OCC(C)(C)C)C1c1csc2c(C#N)cccc12` (stereo not drawn) [Example D43, 5-Methyl 3-neopentyl 2-amino-4-(7-cyanobenzo[b]thiophen-3-yl)-6-methyl-1,4-dihydropyridine-3,5-dicarboxylate]: the Kb is at least 1000 nM.

For the molecule `C#CCOC(=O)C1=C(C)NC(N)=C(C(=O)OCC2CC2)C1c1csc2c(C#N)cccc12` (stereo not drawn) [Example D47, 3-(Cyclopropylmethyl) 5-(prop-2-yn-1-yl) 2-amino-4-(7-cyanobenzo[b]thiophen-3-yl)-6-methyl-1,4-dihydropyridine-3,5-dicarboxylate], the antagonist equilibrium constant (Kb) is at least 1000 nM. In the case of `CC(=O)C1=C(C)NC(C)=C(C(=O)OCC2CCOCC2)C1c1csc2ccc(Cl)cc12` (stereo not drawn) [Example C43, (Tetrahydro-2H-pyran-4-yl)methyl 5-acetyl-4-(5-chlorobenzo[b]thiophen-3-yl)-2,6-dimethyl-1,4-dihydropyridine-3-carboxylate] it was under 100 nM.
